Measurements taken from patent US4693998A, “Novel compounds of the muramyl peptide” (Agence Nationale de Valorisation de la Rechersche, priority 1978, dated 1987).

What was measured:
[1] = tested on: ovalbumin specific antibodies / delayed hypersensitivity; assay: Adjuvant character in the presence of an oily phase (FIA): ovalbumin antibodies and delayed hypersensitivity; format: in vivo, Hartley guinea pigs; conditions: for Serum Antibodies / Cutaneous test (diameter in mm): guinea pigs; for Serum Antibodies: 0.1 mg in FIA emulsion with 1 mg ovalbumin, intradermal, day 21, nitrogen precipitatable by the antigen; for Cutaneous test (diameter in mm): 0.1 mg in FIA emulsion, 0.01 mg ovalbumin intradermal at day 18, read 48 hours later; for delayed hypersensitivity reaction / level of antibodies formed: administered in an oily emulsion
Protocol: In these tests, the growth of the specific antibody level of a given antigen is followed when the latter is injected, with or without the adjuvant compound according to the invention, in a water in oil emulsion.
The tests were carried out on batches of 6 female Hartley guinea pigs of 350 g. The administration was done by intradermal injection into the plantar pad of each of the rear paws. The ovalbumin (constituting the antigen) at the dose of 1 mg is prepared in 0.1 ml of a saline isotonic solution emulsion, in an oily phase constituted by the Freund incomplete adjuvant (FIA). The compound according to the invention is administered at the dose of 0.1 mg added in the emulsion containing the FIA.
As previously, by way of comparison, a test was carried out with MDP in place of the product according to the invention.
Eighteen days after this immunization, possible reactions are sought of delayed hypersensitivity to the antigen by injecting by the intradermal route 0.01 mg of ovalbumin into the side of the animals, and there was observed, 48 hours later, the reaction at the point of injection. The diameter in millimeters of the reaction thus-caused was measured.
Twenty-one days after the injection, the animals were bled. In the serum collected, the content is measured of specific antibodies of ovalbumin by precipitation of the antibody-antigen complex in the equivalence zone. The amount of protein nitrogen contained in this precipitate was estimated by the method of Folin. These values express the amount, in micrograms, of nitrogen precipitatable by the antigen, per […] of serum.

[2] = tested on: bovine serum albumin (BSA) antibodies; assay: Adjuvant character in the aqueous phase: anti-albumin antibodies by passive hemagglutination; format: in vivo, Swiss mice; conditions: for Antibody Titer Secondary Response / Antibody Titer Primary Response: Swiss mice, 100 μg s.c. with 0.5 mg BSA in isotonic saline; for Antibody Titer Secondary Response: after booster 0.1 mg BSA at 30 days; for Antibody Titer Primary Response: maximum serum dilution agglutinating; for level of antibodies formed: administered in isotonic saline solution
Protocol: In this series of trials of which the results are indicated below, the influence of the active principle according to the invention on the level of anti-albumin antibodies under the following conditions, were studied.
Groups of 8 Swiss mice aged two months received, by sub-cutaneous injection, 0.5 mg of antigen constituted by bovine serum albumin (BSA) with or without the tested substance in isotonic saline solution. This high dose of antigen, because it is situated at the limit of the paralysing dose with respect to the immune response, results for this reason, in a weak or nil response to the antigen alone in the controls; it therefore constitutes a severe criterion for establishing the activity of an adjuvant substance. Thirty days later, the mice received, by the same route of administration, a booster containing 0.1 mg of the same antigen.
By way of comparison, the adjuvant effect was studied simultaneously of 2-(2-acetamido-2-deoxy-3-O-D-glucopyranosyl)-D-propionyl-L-alanyl-D-isoglutamine (MDP) known for its adjuvant properties.
The antibody level is determined by passive hemagglutination using sheep's red blood cells treated with formalin and covered with the antigen studied according to the method described by A. A. HIRATA and M. W. BRANDISS (J. Immunol., 100, 641-648, 1968). Samples were taken respectively after the first injection of antigen and after injection of the booster to determine the primary and secondary responses.
The antibody titers express the maximum serum dilution agglutinating a given amount of sheep's red blood cells.

total blood = assay: Influence on coagulation mechanisms: recalcification coagulation time after incubation with total blood; format: cell-based, rabbit; conditions: for coagulation time: 100 μg per 1 ml total blood; for effect on coagulation: contrary to LPS
Excerpt: It is known, from recent studies, that compounds having adjuvant properties like LPS can have side effects. Thus it has been observed in the rabbits that the administration of LPS has a tendency to shorten the coagulation time. The reasons for this phenomena are not fully known; nonetheless, it has seemed useful to determine the effect of the products according to the invention on coagulation under the same conditions.
For these tests, the test described by LERNER et col. in Thrombosis Research, Vol. 11, pp. 253-261, 1977, "Endotoxin induced disseminated intravascular clotting: evidence that it is mediated by neutrophile production of tissue factor", was used.
The total blood was divided into two portions of which one was centrifuged to obtain platelet-free plasma (PFP).
1 ml of total blood was incubated in a plastic tube in the presence of 100 μg of the product to be tested.
Tubes were also prepared containing 0.1 ml of PFP to which every hour, from 0 to 5 hours, were added 0.1 ml of incubation mixture, then these were recalcified by 0.1 ml of 0.025M calcium chloride.
The coagulation time was noted and the pro-coagulating activity was deduced therefrom as a function of the shortening of the coagulation time with respect to the control, physiological water. The result was compared with that of a highly pro-coagulant reference standard, the LPS.
The coagulation times are expressed in seconds.

[3] = Pyrogenicity: maximum temperature variation in rabbits during three hours after administration; format: in vivo, rabbit; conditions: three hours following administration
Protocol: In the course of tests on rabbits, the maximum temperature variations during the three hours following administration were followed. For doses as high as 5 mg/kg or more of product, no significant variation in temperature is observed. Thus the average rise in temperature for administration to rabbits, for different esters of Mur-NAc-L-Ala-D-Gln is: […]

Klebsiella pneumoniae = assay: Anti-infection activity with respect to Klebsiella (mouse survival); format: in vivo; conditions: for anti-infectious activity: higher percentage of survivors than control group
Excerpt: The testing procedure is described in the article CHEDID L. et col., Proc. Natl. Acad. Sci. USA 1977, 74: 2089.
It was shown that a dose of 1 to 2.10^4 Klebsiella pneumoniae, injected by the intramuscular route to mice, results in the progressive death of a considerable part, if not of the whole, of the animals in the week following inoculation. After eight days, the survival of the remaining animals is finally achieved.
The survival of groups of mice inoculated under the above-indicated conditions and treated by means of the products according to the invention, was followed.
For these tests, hybrid mice (C571B1/6×AKR)F1 raised at the INSTITUT PASTEUR were used, there mice being raised from strains coming from the C.N.R.S. breeding station at ORLEANS.
Infection by Klebsiella pneumoniae, capsular type 2, biotype d, strain was effected with a 16 hour culture in medium for pneumococci (No. 53515, INSTITUT PASTEUR) was effected. The infecting dose was 2.10^4 Klebsiella; it was administered by the intramuscular route.
The administration of the tested product is effected by the intravenous route in 0.2 ml of apyrogenic physiological solution, the controls receiving the solution alone. It is carried out 24 hours before the inoculation.

[4] = cited from earlier work
[5] = in vivo; cited from earlier work

Compound: CC(=O)N[C@@H]1[C@@H](O[C@H](C)C(=O)N[C@@H](C)C(=O)N[C@H](CCC(=O)O)C(N)=O)[C@H](O)[C@@H](CO)O[C@H]1O [MDP, 2-(2-acetamido-2-deoxy-3-O-D-glucopyranosyl)-D-propionyl-L-alanyl-D-isoglutamine, reference compound]
- Serum Antibodies [1]: 5,000 μg/ml
- Cutaneous test (diameter in mm) [1]: 15 mm
- Antibody Titer Secondary Response [2]: 300 ± 100
- Antibody Titer Primary Response [2]: 50

Compound: COC(=O)[C@@H](CCC(N)=O)NC(=O)[C@H](C)NC(=O)[C@@H](C)O[C@H]1[C@H](O)[C@@H](CO)OC(O)[C@@H]1NC(C)=O (stereo partly drawn) [Mur--NAc--L-Ala--D-Glu(NH2)--OCH3, Methyl ester of N-acetyl-muramyl-L-alanyl-D-glutamine]
- coagulation time (total blood; incubation 0 h): 125 s
- coagulation time (total blood; incubation 2 h): 118 s
- coagulation time (total blood; incubation 3 h): 109 s
- coagulation time (total blood; incubation 4 h): 110 s
- coagulation time (total blood; incubation 5 h): 104 s
- effect on coagulation (total blood): do not accelerate coagulation
- delayed hypersensitivity reaction [1]: induces a delayed hypersensitivity reaction
- level of antibodies formed [1]: very considerable increase in the level of antibodies formed
- Serum Antibodies [1]: 6,000 μg/ml
- Cutaneous test (diameter in mm) [1]: 17 mm
- Antibody Titer Secondary Response [2]: 500 ± 150
- Antibody Titer Primary Response [2]: 100
- level of antibodies formed [2]: considerable increase in the level of antibodies formed
- average rise in temperature ([3]; at 5 mg/kg): 0.53 °C

Compound: CCCCCCCCCCOC(=O)C(CCC(N)=O)NC(=O)C(C)NC(=O)C(C)OC1C(O)C(CO)OC(O)C1NC(C)=O [decyl ester, n-decyl ester of N-acetyl-muramyl-L-alanyl-D-glutamine]
- anti-infectious activity (Klebsiella pneumoniae): anti-infectious activity
- average rise in temperature ([3]; at 10 mg/kg): 0.23 °C

Compound: CC(=O)N[C@H]1C(O)O[C@H](CO)[C@@H](O)[C@@H]1O[C@H](C)C(=O)N[C@@H](C)C(=O)N[C@H](CCC(N)=O)C(N)=O (stereo partly drawn) [diamide of N-acetyl-muramyl-L-alanyl-D-glutamic acid]
- adjuvant activity compared with N-acetyl-muramyl-L-alanyl-D-isoglutamine ([4]; in vivo): less active
- pyrogenicity [5]: very low level of pyrogenicity

Compound: COC(=O)CC[C@@H](NC(=O)[C@H](C)NC(=O)C(C)O[C@H]1[C@H](O)[C@@H](CO)O[C@H](O)[C@@H]1NC(C)=O)C(=O)OC (stereo partly drawn) [dimethyl ester of N-acetyl-muramyl-L-alanyl-D-glutamic acid]
- adjuvant activity in oil compared with γ-methylester of N-acetyl-muramyl-L-alanyl-D-isoglutamine ([4]; in oil, ADAM et coll. 1976): lesser adjuvant activity in oil

Compound: n-butyl ester of N-acetyl-muramyl-L-alanyl-D-glutamine [Mur--NAc--L-Ala--D-Glu(NH2)--OC4 H9]
- coagulation time (total blood; incubation 0 h): 129 s
- coagulation time (total blood; incubation 2 h): 120 s
- coagulation time (total blood; incubation 3 h): 122 s
- coagulation time (total blood; incubation 4 h): 114 s
- coagulation time (total blood; incubation 5 h): 108 s
- effect on coagulation (total blood): do not accelerate coagulation
- anti-infectious activity (Klebsiella pneumoniae): anti-infectious activity
- % Protection (Klebsiella pneumoniae; mice, 2.10^4 Klebsiella i.m., product i.v. 24 hours before inoculation): 63%
- % Survival D3 (Klebsiella pneumoniae; mice, 2.10^4 Klebsiella i.m., product i.v. 24 hours before inoculation, day 3): 92%
- % Survival D5 (Klebsiella pneumoniae; mice, 2.10^4 Klebsiella i.m., product i.v. 24 hours before inoculation, day 5): 75%
- % Survival D10 (Klebsiella pneumoniae; mice, 2.10^4 Klebsiella i.m., product i.v. 24 hours before inoculation, day 10): 75%
- delayed hypersensitivity reaction [1]: induces a delayed hypersensitivity reaction
- level of antibodies formed [1]: very considerable increase in the level of antibodies formed
- Serum Antibodies [1]: 2,000 μg/ml
- Cutaneous test (diameter in mm) [1]: 8 mm
- Antibody Titer Secondary Response [2]: 600 ± 200
- Antibody Titer Primary Response [2]: 12
- level of antibodies formed [2]: considerable increase in the level of antibodies formed
- average rise in temperature ([3]; at 10 mg/kg): 0.30 °C
